Experimental data taken from patent US11078202B2, “β-lactamase inhibitor and use thereof” (priority 2018, dated 2021).
Where a name gives a salt, the structure may show the parent alone.

Legend:
Assay type in all cases: cell-based
[1] = system: Acinetobacter baumannii XNWB 0007; experiment: MIC assay of test compounds combined with ceftazidime (8 μg/mL); settings: ceftazidime 8 μg/mL fixed
How it was run: (§1)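 Broth microdilution in CAMHB per CLSI guidance: colonies grown on TSA at 35±2 °C for 20-24 h were suspended in 0.9% NaCl to OD600 0.1-0.15 and diluted 300-fold in 1.1×CAMHB. Compound plus fixed β-lactam plates were incubated at 35±2 °C for 16-20 h before the MIC was recorded.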

[2] = system: Klebsiella pneumoniae XNWB 0001; experiment: as above; settings: ceftazidime 8 μg/mL fixed
How it was run: as §1

[3] = system: Klebsiella pneumoniae XNWB 0002; experiment: as above; settings: ceftazidime 8 μg/mL fixed
How it was run: as §1

[4] = system: Klebsiella pneumoniae XNWB 0003; experiment: as above; settings: ceftazidime 8 μg/mL fixed
How it was run: as §1

[5] = system: Klebsiella pneumoniae XNWB 0004; experiment: as above; settings: ceftazidime 8 μg/mL fixed
How it was run: as §1

[6] = system: Klebsiella pneumoniae XNWB 0005; experiment: as above; settings: ceftazidime 8 μg/mL fixed
How it was run: as §1

[7] = system: Klebsiella pneumoniae XNWB 0006; experiment: as above; settings: ceftazidime 8 μg/mL fixed
How it was run: as §1

[8] = system: Pseudomonas aeruginosa XNWB 0008; experiment: as above; settings: ceftazidime 8 μg/mL fixed
How it was run: as §1

[9] = system: Acinetobacter baumannii XNWB 0007; experiment: MIC assay of test compounds combined with imipenem (4 μg/mL); settings: imipenem 4 μg/mL fixed
How it was run: as §1

[10] = system: Klebsiella pneumoniae XNWB 0001; experiment: as above; settings: imipenem 4 μg/mL fixed
How it was run: as §1

[11] = system: Klebsiella pneumoniae XNWB 0002; experiment: as above; settings: imipenem 4 μg/mL fixed
How it was run: as §1

[12] = system: Klebsiella pneumoniae XNWB 0003; experiment: as above; settings: imipenem 4 μg/mL fixed
How it was run: as §1

[13] = system: Klebsiella pneumoniae XNWB 0004; experiment: as above; settings: imipenem 4 μg/mL fixed
How it was run: as §1

[14] = system: Klebsiella pneumoniae XNWB 0005; experiment: as above; settings: imipenem 4 μg/mL fixed
How it was run: as §1

[15] = system: Klebsiella pneumoniae XNWB 0006; experiment: as above; settings: imipenem 4 μg/mL fixed
How it was run: as §1

[16] = system: Pseudomonas aeruginosa XNWB 0008; experiment: as above; settings: imipenem 4 μg/mL fixed
How it was run: as §1

Row | Structure (SMILES) | The minimum concentration of test compounds combined with ceftazidime (8 μg/mL) for bacteriostasis [1] | The minimum concentration of test compounds combined with ceftazidime (8 μg/mL) for bacteriostasis [2] | The minimum concentration of test compounds combined with ceftazidime (8 μg/mL) for bacteriostasis [3] | The minimum concentration of test compounds combined with ceftazidime (8 μg/mL) for bacteriostasis [4] | The minimum concentration of test compounds combined with ceftazidime (8 μg/mL) for bacteriostasis [5] | The minimum concentration of test compounds combined with ceftazidime (8 μg/mL) for bacteriostasis [6] | The minimum concentration of test compounds combined with ceftazidime (8 μg/mL) for bacteriostasis [7] | The minimum concentration of test compounds combined with ceftazidime (8 μg/mL) for bacteriostasis [8] | The minimum concentration of test compounds combined with imipenem (4 μg/mL) for bacteriostasis [9] | The minimum concentration of test compounds combined with imipenem (4 μg/mL) for bacteriostasis [10] | The minimum concentration of test compounds combined with imipenem (4 μg/mL) for bacteriostasis [11] | The minimum concentration of test compounds combined with imipenem (4 μg/mL) for bacteriostasis [12] | The minimum concentration of test compounds combined with imipenem (4 μg/mL) for bacteriostasis [13] | The minimum concentration of test compounds combined with imipenem (4 μg/mL) for bacteriostasis [14] | The minimum concentration of test compounds combined with imipenem (4 μg/mL) for bacteriostasis [15] | The minimum concentration of test compounds combined with imipenem (4 μg/mL) for bacteriostasis [16]
1 | CN(Cc1cc([C@@H]2CC3(CC3)[C@@H]3CN2C(=O)N3OS(=O)(=O)O)no1)C(=N)N [Example 33, (1R,4S)-4-(5-((1-methylguanidino)methyl)isoxazol-3-yl)-6-oxo-5,7-diazaspiro[bicycle [3.2.1]octane-2,1′-cyclopropan]-7-yl sulfate] | C (C: 16-128 μg/mL) | B (B: 8-16 μg/mL) | A (A: <8 μg/mL) | C (C: 16-128 μg/mL) | C (C: 16-128 μg/mL) | B (B: 8-16 μg/mL) | A (A: <8 μg/mL) | C (C: 16-128 μg/mL) | C (C: 16-128 μg/mL) | A (A: <8 μg/mL) | A (A: <8 μg/mL) | A (A: <8 μg/mL) | A (A: <8 μg/mL) | A (A: <8 μg/mL) | A (A: <8 μg/mL) | B (B: 8-16 μg/mL)
2 | N=C(N)NCc1cc([C@@H]2CC3(CC3)[C@@H]3CN2C(=O)N3OS(=O)(=O)O)no1 [Example 34, (1R,4S)-4-(5-(guanidinomethyl)isoxazol-3-yl)-6-oxo-5,7-diazaspiro[bicyclo[3.2.1]octane-2,1′-cyclopropan]-7-yl sulfate] | C (C: 16-128 μg/mL) | A (A: <8 μg/mL) | A (A: <8 μg/mL) | A (A: <8 μg/mL) | B (B: 8-16 μg/mL) | B (B: 8-16 μg/mL) | A (A: <8 μg/mL) | C (C: 16-128 μg/mL) | B (B: 8-16 μg/mL) | A (A: <8 μg/mL) | A (A: <8 μg/mL) | A (A: <8 μg/mL) | A (A: <8 μg/mL) | A (A: <8 μg/mL) | A (A: <8 μg/mL) | B (B: 8-16 μg/mL)
3 | NCc1cc([C@@H]2CC3(CC3)[C@@H]3CN2C(=O)N3OS(=O)(=O)O)no1 [Example 35, (1R,4S)-4-(5-(aminomethyl)-isoxazol-3-yl)-6-oxo-5,7-diazaspiro[bicyclo[3.2.1]octane-2,1′-cyclopropan]-7-yl sulfate] | C (C: 16-128 μg/mL) | A (A: <8 μg/mL) | A (A: <8 μg/mL) | A (A: <8 μg/mL) | A (A: <8 μg/mL) | A (A: <8 μg/mL) | A (A: <8 μg/mL) | C (C: 16-128 μg/mL) | C (C: 16-128 μg/mL) | A (A: <8 μg/mL) | A (A: <8 μg/mL) | A (A: <8 μg/mL) | A (A: <8 μg/mL) | A (A: <8 μg/mL) | A (A: <8 μg/mL) | B (B: 8-16 μg/mL)
4 | N=C(N)NCCc1cc([C@@H]2CC3(CC3)[C@@H]3CN2C(=O)N3OS(=O)(=O)O)no1 [Example 36, (1R,4S)-4-(5-(2-guanidinoethyl)isoxazol-3-yl)-6-oxo-5,7-diazaspiro[bicyclo[3.2.1]octane-2,1′-cyclopropan]-7-yl sulfate] | C (C: 16-128 μg/mL) | A (A: <8 μg/mL) | A (A: <8 μg/mL) | A (A: <8 μg/mL) | B (B: 8-16 μg/mL) | A (A: <8 μg/mL) | A (A: <8 μg/mL) | B (B: 8-16 μg/mL) | C (C: 16-128 μg/mL) | A (A: <8 μg/mL) | A (A: <8 μg/mL) | A (A: <8 μg/mL) | A (A: <8 μg/mL) | A (A: <8 μg/mL) | A (A: <8 μg/mL) | A (A: <8 μg/mL)
5 | CN(CCc1cc([C@@H]2CC3(CC3)[C@@H]3CN2C(=O)N3OS(=O)(=O)O)no1)C(=N)N [Example 37, (1R,4S)-4-(5-(2-(1-methylguanidino)ethyl)isoxazol-3-yl)-6-oxo-5,7-diazaspiro[bicycle [3.2.1]octane-2,1′-cyclopropan]-7-yl sulfate] | C (C: 16-128 μg/mL) | A (A: <8 μg/mL) | A (A: <8 μg/mL) | B (B: 8-16 μg/mL) | B (B: 8-16 μg/mL) | A (A: <8 μg/mL) | A (A: <8 μg/mL) | C (C: 16-128 μg/mL) | C (C: 16-128 μg/mL) | A (A: <8 μg/mL) | A (A: <8 μg/mL) | A (A: <8 μg/mL) | A (A: <8 μg/mL) | A (A: <8 μg/mL) | A (A: <8 μg/mL) | B (B: 8-16 μg/mL)
